Consider two molecules from patent US4665019A, “Method for measuring the plasma levels of an inhibitor of (Na^+ +K^ +” (University of Maryland, priority 1983, dated 1987).

The target in assay [1] is T1, canine kidney (Na^+ +K^+)ATPase (Canis lupus familiaris, UniProt P50997).
T1 construct: suspending canine kidney (Na^+ +K^+)ATPase; purchased Sigma Chemical; host or cells: canine kidney (tissue-derived membrane preparation)
The experiment in a line: (Na+ +K+)ATPase activity assay coupled to NADH oxidation (A340). The assay is classed as biochemical, canine (dog). The settings on record: for time course of inhibition of (Na^+ +K^+)ATPase activity: FIG. 1a/1b, continuous recording of A340, 37° C. The protocol: The (Na^+ +K^+)ATPase preparation employed in the assay of this example comprised unsealed membrane sheets as described in Jorgensen, P. L. Biochim. Biophys. Acta 356: 36-52 (1974). Thus, it was not able to distinguish between an external and an internal site of action for the inhibitor.
The ATPase assay solution employed contained 400 μl of an ATPase cocktail and 580 μl of water. The ATPase cocktail was such that the final reaction conditions were (in 1.0 ml) as follows: 20 mM KCl; 100 mM NaCl; 4.5 mM MgSO4; 5 mM EGTA; 3 mM Na2 ATP; 1.2 mM tricyclohexylammonium phosphoenolpyruvate (PEP), 0.25 NADH, 40 mM trimethylaminoethanesulphonic acid (TES)-Tris, pH 7.4; 1.2 units lactate dehydrogenase (LDH); and 1.2 units pyruvate kinase (PK), (ATP, PEP, NADH, LDH and PK were purchased from Boehringer Mannheim Biochemicals; LDG and PK enzymes were obtained as glycerol suspensions.)
The (Na^+ +K^+)ATPase suspension was prepared for assay by suspending canine kidney (Na^+ +K^+)ATPase (obtained from Sigma Chemical having a specific activity of 5-6 μmol per min per mg protein and containing a ouabain-insensitive Mg^2+ -ATPase activity which was less than 2% of the total steady-state ATPase activity) in 500 μM Na4 EDTA, 10 mM (TES)-Tris pH 7.4, at a protein concentration of 150 μg/ml. The resuspended enzyme was incubated at 25° C. for 3 hours and then stored on ice.
The assay was initiated by the rapid addition of 20 μl of ATPase suspension (3 μg protein) to 980 μl of ATPase assay solution in a 1.0 ml cuvette at 37° C. The decrease in ultraviolet light absorbance at 340 nm (A340) due to NADH oxidation (ε=6.22×10^3 1 mol^-1 cm^-1) was continuously recorded using a Beckman Model 25 UV-VIS recording spectrophotometer.
FIG. 1a illustrates ATPase inhibition by ouabain. […] The control contained an appropriate quantity of DMSO.
FIG. 1b illustrates ATPase inhibition by vanadate. […] The control contained in appropriate quantity of water. […]
Percent inhibition was calculated as: [formula]

For assay [2], the system named is ATP generating reaction system. Briefly: Efficacy of the ATP generating reaction system (rates of NADH oxidation on addition of ADP). The class given is biochemical. To be noted: at the concentrations shown in FIGS. 1a and 1b; addition of 10-50 μM ADP.

In the case of `C[C@@H]1O[C@@H](O[C@H]2C[C@@H](O)[C@]3(CO)[C@H]4[C@H](O)C[C@]5(C)[C@@H](C6=CC(=O)OC6)CC[C@]5(O)[C@@H]4CC[C@]3(O)C2)[C@H](O)[C@H](O)[C@H]1O` [ouabain], the “time course of inhibition of (Na^+ +K^+)ATPase activity” value in assay [1] was “no significant effect on the reaction for the first 30 seconds, and thereafter causes a progressive, dose-dependent increase in inhibition”. In addition, in assay [2], the “effect on the efficacy of the ATP generating reaction system” value was “Neither ouabain nor vanadate, at the concentrations shown in FIGS. 1a and 1b, had a significant effect”.

What is called Ki is a measure of affinity in units of concentration, obtained from inhibition or displacement. With `[Na+].[Na+].[Na+].[O]=[V]([O-])([O-])[O-]` [vanadate, Na3 VO4], the “time course of inhibition of (Na^+ +K^+)ATPase activity” value in assay [1] is recorded as “the effect of vanadate was apparent in the first few seconds of the reaction”. The Ki in assay [1] (from steady-state levels of (Na^+ +K^+)ATPase activity at various vanadate concentrations, 37° C.) stood at 900 nM. Further, the “effect on the efficacy of the ATP generating reaction system” value in assay [2] is “Neither ouabain nor vanadate, at the concentrations shown in FIGS. 1a and 1b, had a significant effect”.
